Source: publication PMC10390107, “The 4-(dimethylaminoalkyl)piperazine inhibitors of α-glucosidase: allosteric enzyme inhibition and identification of interacting chemical groups” (Turkish Journal of Chemistry, 2022)
“Also recorded” adds a separate entry of the source. Like-named read-outs stand apart in the source and are kept apart here.

Biological target: T1, α-glucosidase (EC 3.2.1.20) from Saccharomyces cerevisiae (Saccharomyces cerevisiae, UniProt P53341)
T1 construct: purchased Sigma Chemical Co., St. Louis, USA
T1 sequence (P53341 whole entry): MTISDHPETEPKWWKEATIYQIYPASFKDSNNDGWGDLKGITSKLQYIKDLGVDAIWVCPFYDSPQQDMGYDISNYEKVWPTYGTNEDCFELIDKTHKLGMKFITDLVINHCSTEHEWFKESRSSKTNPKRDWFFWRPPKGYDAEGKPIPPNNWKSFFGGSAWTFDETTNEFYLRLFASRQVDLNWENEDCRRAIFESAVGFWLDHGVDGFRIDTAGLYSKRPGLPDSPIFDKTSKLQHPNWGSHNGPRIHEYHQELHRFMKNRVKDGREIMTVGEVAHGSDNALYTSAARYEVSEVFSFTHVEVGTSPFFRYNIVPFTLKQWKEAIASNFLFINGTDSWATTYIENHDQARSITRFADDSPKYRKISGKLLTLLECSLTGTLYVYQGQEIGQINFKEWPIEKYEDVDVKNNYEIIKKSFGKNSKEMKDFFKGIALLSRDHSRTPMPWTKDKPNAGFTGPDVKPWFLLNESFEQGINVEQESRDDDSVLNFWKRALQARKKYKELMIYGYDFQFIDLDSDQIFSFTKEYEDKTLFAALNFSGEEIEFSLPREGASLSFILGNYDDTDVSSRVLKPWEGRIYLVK
Experiment: biochemical
Assay type: biochemical
Settings: mean of quadruplet experiments ± SEM, from Dixon plots, pH 6.8, 37 °C
Protocol: All in vitro α-glucosidase inhibition assays were performed in a 96-well microplate format. The α-glucosidase inhibition assay reported elsewhere was customized to suit the experimental needs of the current work. The assay mixture contained 50 mM sodium phosphate buffer (pH 6.8), 20 mU of α-glucosidase (EC 3.2.1.20) from Saccharomyces cerevisiae (Sigma Chemical Co., St. Louis, USA), and 1.0 mM of p-nitrophenyl-α-D-glucopyranoside (PNP-G) substrate. All target compounds were dissolved in DMSO with the assay mixture containing DMSO at a final concentration of 3%. […] The reaction was continuously monitored at 400 nm in SpectraMax Plus 384® microplate reader (Molecular Devices, CA, USA). […] All assays were performed as four individual experiments out of which the values of mean and standard error of mean (SEM) were calculated.
The enzyme kinetics assay procedure was essentially the same as mentioned above except that it was specifically designed for the kinetic work. […] The type of inhibition was calculated from the Lineweaver-Burk plots which was further confirmed by the Dixon plot using Grafit 7.0.3 software (Erithacus Software Ltd., Staines, UK). The Ki values were also calculated from their respective Dixon plots. All kinetic experiments were conducted in quadruplicate from which mean Ki values and the SEM were calculated.

| Ki (read-out: Ki) [µM] | Structure (SMILES) | Ki |
| --- | --- | --- |
| 5.75 ± 0.2 | CN(C)CCCN1CCN(C(=S)SCCCC(=O)c2ccc(Cl)cc2)CC1 [PC1] | – |
| – | CN(C)CCCN1CCN(C(=S)SCCC(=O)c2ccccc2)CC1 [PC9] | no inhibitory activity; also recorded: Inactive |
